# Measurements from patent US20230263822A1, “MODULATION OF FACTOR 11 EXPRESSION” (Ionis Pharmaceuticals, Inc., priority 2008, published 2023).
# Strand notation (5' to 3'): a small letter for the sugar, then the base; units joined by * are phosphorothioate-linked, units joined directly phosphodiester-linked; [ ] holds rarer units or linkages, { } end groups; capitals alone tell only the bases. e = 2'-O-(2-methoxyethyl) (MOE); [5mC] = 5-methylcytosine; d = 2'-deoxy (DNA)
# Assays:
# human Factor 11 mRNA [1] = assay: Antisense inhibition of human Factor 11 in HepG2 cells, lipofectin, 75 nM (Example 1); format: cell-based; conditions: 75 nM antisense oligonucleotide, ~24 h, relative to untreated control cells, gapmers targeted to SEQ ID NO: 1
# Outline: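 HepG2 cells transfected via lipofectin with 75 nM antisense oligonucleotide (5-10-5 MOE gapmers, 20-mers, phosphorothioate, 5-methylcytidines), treated ~24 h. Factor 11 mRNA quantified by real-time PCR, normalised to RIBOGREEN total RNA; percent inhibition versus untreated cells.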
# human Factor 11 mRNA [2] = assay: Dose-dependent antisense inhibition of human Factor 11 in HepG2 cells, lipofectin 9.375-150 nM (Example 2); format: cell-based; conditions: ~16 h
# Description: Cells were plated at a density of 10,000 cells per well and transfected using lipofectin reagent with 9.375 nM, 18.75 nM, 37.5 nM, 75 nM, and 150 nM concentrations of antisense oligonucleotide, as specified in Table 3. After a treatment period of approximately 16 hours, RNA was isolated from the cells and Factor 11 mRNA levels were measured by quantitative real-time PCR. Human Factor 11 primer probe set RTS 2966 (forward sequence: […], incorporated herein as SEQ ID NO: 3; reverse sequence: […], incorporated herein as SEQ ID NO: 4; probe sequence: TTGTCTACTGAAGCACACCCAAACAGGGAX, incorporated herein as SEQ ID NO: 5) was used to measure mRNA levels. Factor 11 mRNA levels were adjusted according to total RNA content, as measured by RIBOGREEN. Results are presented as percent inhibition of Factor 11, relative to untreated control cells.
Substance,% inhibition (human Factor 11 mRNA [1]) [%],percent inhibition of Factor 11 at 9.375 nM (human Factor 11 mRNA [2]) [%],percent inhibition of Factor 11 at 18.75 nM (human Factor 11 mRNA [2]) [%],percent inhibition of Factor 11 at 37.5 nM (human Factor 11 mRNA [2]) [%],percent inhibition of Factor 11 at 75 nM (human Factor 11 mRNA [2]) [%],percent inhibition of Factor 11 at 150 nM (human Factor 11 mRNA [2]) [%],IC50 (human Factor 11 mRNA [2]) [nM]
412206 (antisense e[5mC]*e[5mC]*eG*eT*eG*d[5mC]*dA*dT*d[5mC]*dT*dT*dT*d[5mC]*dT*dT*eG*eG*e[5mC]*eA*eT) [compound 412206],87,28,44,68,80,89,22
"412223 (antisense ACAGTTTCTGGCAGGCCTCG; 5-10-5 MOE gapmer, further chemistry not given here) [compound 412223]",84,33,48,62,76,81,21
"412224 (antisense GCATTGGTGCACAGTTTCTG; 5-10-5 MOE gapmer, further chemistry not given here) [compound 412224]",87,24,45,57,70,81,28
"412225 (antisense GCAGCGGACGGCATTGGTGC; 5-10-5 MOE gapmer, further chemistry not given here) [compound 412225]",86,32,42,65,78,73,23
